In the experiment the target is T1, human TSHR (Homo sapiens, UniProt P16473).
T1 construct: expressed in transfected cells
T1 sequence (P16473 21-764): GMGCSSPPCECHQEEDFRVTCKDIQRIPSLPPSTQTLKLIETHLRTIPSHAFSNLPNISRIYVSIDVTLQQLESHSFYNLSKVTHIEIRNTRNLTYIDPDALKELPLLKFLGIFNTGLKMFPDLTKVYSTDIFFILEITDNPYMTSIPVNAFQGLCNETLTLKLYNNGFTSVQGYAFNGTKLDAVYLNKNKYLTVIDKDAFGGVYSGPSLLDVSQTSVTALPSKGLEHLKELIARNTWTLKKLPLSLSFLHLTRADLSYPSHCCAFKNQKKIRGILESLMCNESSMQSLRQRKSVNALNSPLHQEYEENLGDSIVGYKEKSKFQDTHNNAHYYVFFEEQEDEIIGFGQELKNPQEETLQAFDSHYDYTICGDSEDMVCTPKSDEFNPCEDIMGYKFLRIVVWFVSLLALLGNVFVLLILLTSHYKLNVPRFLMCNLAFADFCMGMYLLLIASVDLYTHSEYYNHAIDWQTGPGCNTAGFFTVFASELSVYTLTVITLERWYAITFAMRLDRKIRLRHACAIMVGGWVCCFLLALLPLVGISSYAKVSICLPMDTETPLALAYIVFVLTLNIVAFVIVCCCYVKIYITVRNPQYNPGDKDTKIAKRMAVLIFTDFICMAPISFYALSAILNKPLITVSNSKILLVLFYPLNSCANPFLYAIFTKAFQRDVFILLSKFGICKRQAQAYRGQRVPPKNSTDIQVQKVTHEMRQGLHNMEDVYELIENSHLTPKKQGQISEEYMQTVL
Description: Antagonist activity using TSH-induced cAMP production in human TSHR-stably expressing CHO cells. As to conditions: human TSH 50 ng/mL. It is filed as cell-based. As to the method:
Measurement of Antagonist Activity Using TSH-Induced cAMP Production in Human TSHR-Stably Expressing CHO Cells as an Indicator
The human TSHR gene sequence (reference number NM_000369.2) was inserted into the multicloning site of pcDNA3.1(+). The constructed plasmid vector was introduced into CHO cells using the lipofection method to establish human TSHR-stably expressing CHO cells. The obtained cells were seeded at 5×10^4 cells/well in a 96-well poly-D-lysine-coated plate, and cultured in an F12 culture medium containing 10% FBS, 400 μg/mL of G418, 50 U/mL of penicillin and 50 μg/mL of streptomycin under conditions of 37° C. and 5% CO2 for 1 day. After the culture medium was removed, the cells were washed twice with 100 μL of an assay buffer solution (Hanks' Balanced Salt Solution containing 20 mM HEPES and 1 mM IBMX) per well. 30 μL of a test compound-containing assay buffer solution was added to the well and incubated at room temperature for 15 minutes. Then, 30 μL of an assay buffer solution containing human TSH (final concentration 50 ng/mL, R&D Systems, Inc.) was added, and incubated at 37° C. for 1 hour. The supernatant was removed, a Lysis and Detection Buffer 2 (Cisbio) was added, and the mixture was incubated at room temperature for 1 hour to prepare a cell lysate. According to the instruction manual of a cAMP Gs HiRange kit (Cisbio), the cell lysate, d2-labeled cAMP and anti-cAMP Europium Cryptate labeled antibodies (Cisbio) were reacted in a 384-well white microplate. Then, a fluorescence intensity ratio (measurement wavelength 665 nm/620 nm) was measured using a multi-plate reader (PHERAstar FSX, BMG LABTECH, Japan). The fluorescence intensity ratio of each sample was converted to a cAMP content using a standard curve. The cAMP content was converted as a percentage of the control value to calculate the cAMP production rate. The CAMP production rate was plotted against the test compound concentration using Prism (Graph Pad Software Inc.) to calculate the IC50 value. The IC50 of each test compound is shown in the above tables. In the tables, IC50<0.5 μM: A, 0.5 μM≤IC50<3.0 μM: B, 3.0 μM≤IC50<30 μM: C are shown.
`Cc1ccc2c(c1Oc1cc(F)ccc1Cl)N(C)C(=O)[C@H](NC(=O)C(Cl)Cl)C2` [Example 83]: the IC50 was under 500 nM. Next, `CN1C(=O)[C@H](NC(N)=O)Cc2ccc(OCc3ccccc3)c(Oc3ccccc3Cl)c21` [Example 32]: 3000 to 30000 nM; `CN1C(=O)[C@H](NC(N)=O)Cc2cccc(Oc3cc(F)ccc3C(F)F)c21` [Example 28]: under 500 nM. Then `CN1C(=O)[C@H](NC(N)=O)Cc2cccc(Oc3cccc(C#N)c3)c21` [Example 12, ((3R)-8-(3-cyanophenoxy)-1-methyl-2-oxo-1,2,3,4-tetrahydroquinolin-3-yl)urea], with 3000 to 30000 nM; and `CC(c1ccccc1C(F)(F)F)c1cccc2c1N(C)C(=O)[C@H](NC(N)=O)C2` (stereo partly drawn) [Example 78, ((3R)-1-Methyl-2-oxo-8-(1-(2-(trifluoromethyl)phenyl)ethyl)-1,2,3,4-tetrahydroquinolin-3-yl)urea], with under 500 nM.

In turn, `CC(=O)N[C@@H]1Cc2ccc(C)c(Oc3cc(F)ccc3Cl)c2N(C)C1=O` [Example 81, N-((3R)-8-(2-chloro-5-fluorophenoxy)-1,7-dimethyl-2-oxo-1,2,3,4-tetrahydroquinolin-3-yl)acetamide] showed an IC50 of under 500 nM. `CN1C(=O)[C@H](NC(N)=O)Cc2ccc(Cl)c(Cc3ccccc3F)c21` [Example 64, ((3R)-7-chloro-8-((2-fluorophenyl)methyl)-1-methyl-2-oxo-1,2,3,4-tetrahydroquinolin-3-yl)urea]: the IC50 was in the range of 500 to 3000 nM. Then `CN1C(=O)[C@H](NC(N)=O)Cc2ccc(F)c(Cc3ccccc3Cl)c21` [Example 60, ((3R)-8-((2-chlorophenyl)methyl)-7-fluoro-1-methyl-2-oxo-1,2,3,4-tetrahydroquinolin-3-yl)urea], with under 500 nM; and `Cc1ccc2c(c1Cc1cc(F)ccc1Cl)N(C)C(=O)[C@H](NC(N)=O)C2` [Example 59, ((3R)-8-((2-chloro-5-fluorophenyl)methyl)-1,7-dimethyl-2-oxo-1,2,3,4-tetrahydroquinolin-3-yl)urea], with under 500 nM. Then `CN1C(=O)[C@H](NC(N)=O)Cc2cccc(Oc3ccccc3C(F)(F)F)c21` [Example 10, ((3R)-1-methyl-2-oxo-8-(2-(trifluoromethyl)phenoxy)-1,2,3,4-tetrahydroquinolin-3-yl)urea], with under 500 nM; and `CN1C(=O)[C@H](NC(N)=O)Cc2ccc(C(F)(F)F)c(Oc3cc(F)ccc3Cl)c21` [Example 74, ((3R)-8-(2-chloro-5-fluorophenoxy)-1-methyl-2-oxo-7-(trifluoromethyl)-1,2,3,4-tetrahydroquinolin-3-yl)urea], with under 500 nM; and `CN1C(=O)C(NC(N)=O)Cc2cccc(Oc3ccccc3F)c21` (stereo not shown) [Example 3, (8-(2-fluorophenoxy)-1-methyl-2-oxo-1,2,3,4-tetrahydroquinolin-3-yl)urea], with 500 to 3000 nM. Next, `CN1C(=O)C(NC(N)=O)Cc2cccc(Oc3ccccc3)c21` (stereo not shown) [Example 2, (1-methyl-2-oxo-8-phenoxy-1,2,3,4-tetrahydroquinolin-3-yl)urea]: 500 to 3000 nM. `Cc1ccc2c(c1Oc1ccccc1Cl)N(C)C(=O)[C@H](NC(N)=O)C2` [Example 31, ((3R)-8-(2-chlorophenoxy)-1,7-dimethyl-2-oxo-1,2,3,4-tetrahydroquinolin-3-yl)urea] yielded an IC50 of under 500 nM. Then `CN1C(=O)C(NC(N)=O)Cc2cccc(Oc3cccc(C(F)(F)F)c3)c21` (stereo not shown) [Example 5, (1-methyl-2-oxo-8-(3-(trifluoromethyl)phenoxy)-1,2,3,4-tetrahydroquinolin-3-yl)urea], with 500 to 3000 nM; and `Cc1ccc2c(c1Oc1cc(F)ccc1C(F)F)N(C)C(=O)[C@H](NC(N)=O)C2` [Example 70, ((3R)-8-(2-(difluoromethyl)-5-fluorophenoxy)-1,7-dimethyl-2-oxo-1,2,3,4-tetrahydroquinolin-3-yl)urea], with under 500 nM; and `COc1ccccc1Oc1cccc2c1N(C)C(=O)[C@H](NC(N)=O)C2` [Example 11, ((3R)-8-(2-methoxyphenoxy)-1-methyl-2-oxo-1,2,3,4-tetrahydroquinolin-3-yl)urea], with 3000 to 30000 nM.

For `CCc1cccc(Oc2cccc3c2N(C)C(=O)[C@H](NC(N)=O)C3)c1` [Example 15], the half-inhibitory concentration (IC50) lay within 500 to 3000 nM. Then `CNC(=O)N[C@@H]1Cc2ccc(C)c(Oc3cc(F)ccc3Cl)c2N(C)C1=O` [Example 80, 1-((3R)-8-(2-chloro-5-fluorophenoxy)-1,7-dimethyl-2-oxo-1,2,3,4-tetrahydroquinolin-3-yl)-3-methylurea], with under 500 nM; and `CN1C(=O)C(NC(N)=O)Cc2cccc(Oc3cccc(Cl)c3)c21` (stereo not shown) [Example 6, (8-(3-chlorophenoxy)-1-methyl-2-oxo-1,2,3,4-tetrahydroquinolin-3-yl)urea], with 500 to 3000 nM; and `CC(c1cc(F)ccc1Cl)c1cccc2c1N(C)C(=O)[C@H](NC(N)=O)C2` (stereo partly shown) [Example 79], with under 500 nM. Then `CN1C(=O)[C@H](NC(N)=O)Cc2cccc(Cc3ccccc3C(F)F)c21` [Example 55, ((3R)-8-((2-(difluoromethyl)phenyl)methyl)-1-methyl-2-oxo-1,2,3,4-tetrahydroquinolin-3-yl)urea], with under 500 nM. Then `CN1C(=O)[C@H](NC(N)=O)Cc2cccc(Oc3cccc(OC(F)F)c3)c21` [Example 24, ((3R)-8-(3-(difluoromethoxy)phenoxy)-1-methyl-2-oxo-1,2,3,4-tetrahydroquinolin-3-yl)urea], with 500 to 3000 nM. As to `CN1C(=O)[C@H](NC(N)=O)Cc2ccc(F)c(Cc3ccccc3C(F)(F)F)c21` [Example 61, ((3R)-7-fluoro-1-methyl-2-oxo-8-((2-(trifluoromethyl)phenyl)methyl)-1,2,3,4-tetrahydroquinolin-3-yl)urea], the half-maximal inhibitory concentration (IC50) is under 500 nM.

In the case of `Cc1ccc2c(c1Oc1ccccc1C(F)F)N(C)C(=O)[C@H](NC(N)=O)C2` [Example 38, ((3R)-8-(2-(difluoromethyl)phenoxy)-1,7-dimethyl-2-oxo-1,2,3,4-tetrahydroquinolin-3-yl)urea], the 50% inhibitory concentration (IC50) was under 500 nM.

`Cc1ccc2c(c1Oc1cc(F)ccc1Cl)N(C)C(=O)[C@H](NC(N)=O)C2` [Example 39, ((3R)-8-(2-chloro-5-fluorophenoxy)-1,7-dimethyl-2-oxo-1,2,3,4-tetrahydroquinolin-3-yl)urea] gave an IC50 of under 500 nM.

The compound `CN1C(=O)[C@H](NC(N)=O)Cc2ccc(F)c(Cc3cc(F)ccc3Cl)c21` [Example 56] showed an IC50 of under 500 nM. Next, `CN1C(=O)[C@H](NC(N)=O)Cc2cccc(Oc3cc(F)ccc3C(F)(F)F)c21` [Example 21, ((3R)-8-(5-fluoro-2-(trifluoromethyl)phenoxy)-1-methyl-2-oxo-1,2,3,4-tetrahydroquinolin-3-yl)urea]: under 500 nM; `CN1C(=O)[C@H](NC(N)=O)Cc2cccc(Oc3ccc(F)cc3C(F)F)c21` [Example 29]: under 500 nM; `CN1C(=O)[C@H](NC(=O)C2CC2)Cc2cccc(Oc3cc(F)ccc3Cl)c21` [Example 84]: under 500 nM. Next, `CN1C(=O)[C@H](NC(N)=O)Cc2ccc(C(C)(F)F)c(Oc3cc(F)ccc3Cl)c21` [Example 75, ((3R)-8-(2-chloro-5-fluorophenoxy)-7-(1,1-difluoroethyl)-1-methyl-2-oxo-1,2,3,4-tetrahydroquinolin-3-yl)urea]: under 500 nM. Next, `CN1C(=O)[C@H](NC(N)=O)Cc2ccc(F)c(Oc3ccccc3C(F)F)c21` [Example 43, ((3R)-8-(2-(difluoromethyl)phenoxy)-7-fluoro-1-methyl-2-oxo-1,2,3,4-tetrahydroquinolin-3-yl)urea]: 500 to 3000 nM; `CN1C(=O)C(CC(N)=O)Cc2cccc(Oc3ccccc3)c21` (stereo not shown) [Example 1, 2-(1-methyl-2-oxo-8-phenoxy-1,2,3,4-tetrahydroquinolin-3-yl)acetamide]: 3000 to 30000 nM; `CN1C(=O)[C@H](NC(N)=O)Cc2cccc(Oc3cc(F)ccc3Cl)c21` [Example 16, ((3R)-8-(2-chloro-5-fluorophenoxy)-1-methyl-2-oxo-1,2,3,4-tetrahydroquinolin-3-yl)urea]: under 500 nM. The compound `CN1C(=O)[C@H](NC(N)=O)Cc2ccc(Cl)c(Cc3cc(F)ccc3Cl)c21` [Example 57, ((3R)-7-chloro-8-((2-chloro-5-fluorophenyl)methyl)-1-methyl-2-oxo-1,2,3,4-tetrahydroquinolin-3-yl)urea] registered an IC50 of under 500 nM. For the compound `CN1C(=O)C(NC(N)=O)Cc2cccc(Oc3ncccc3C(F)(F)F)c21` (stereo not shown) [Example 9, (1-methyl-2-oxo-8-((3-(trifluoromethyl)pyridine-2-yl)oxy)-1,2,3,4-tetrahydroquinolin-3-yl)urea], the half-inhibitory concentration (IC50) lay within 3000 to 30000 nM.

Compound `CN1C(=O)[C@H](NC(N)=O)Cc2ccc(F)c(Oc3ccccc3C(F)(F)F)c21` [Example 36] gave an IC50 of 500 to 3000 nM.

Broadly, the IC50 is the concentration at which inhibition is half-maximal. A lower IC50 goes with greater potency in that assay.

Source of the values: US20250361210A1, “3,4-DIHYDROQUINOLIN-2(1H)-ONE COMPOUND” (Kissei Pharmaceutical Co., Ltd., priority 2022, published 2025).
